Reference: US11993574B2, “Pyrazole and imidazole compounds for inhibition of IL-17 and RORgamma” (REATA PHARMACEUTICALS, INC., priority 2018, dated 2024)

Experiments:
Type in all cases: cell-based
[1] = system: Nrf2 transcription factor; experiment: AREc32 luciferase reporter assay; conditions: Homo sapiens; AREc32 cells, 19 hours; concentration required to increase GST ARE luciferase reporter activity by 2-fold; read-out: NRF2 ARE 2-Fold (EC2×)
In short: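 AREc32 cells (MCF-7 with firefly luciferase under eight rat GSTA2 ARE copies) treated 19 h with compound (0.4-200 nM or 3.9-2000 nM) in triplicate. Luminescence normalized to DMSO as fold-induction, capped at 50-fold. EC2× = concentration giving 2-fold reporter increase, interpolated from variable-slope fit.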

[2] = biological target: T1, Human RAR-related Orphan Receptor Gamma (RORγ) (Homo sapiens, UniProt P51449); experiment: RORγ assay (GAL4-RORγ hybrid luciferase reporter, Indigo Biosciences); conditions: inverse-agonist activity, GAL4-RORγ reporter cells, 23 hours
T1 sequence (P51449 269-508 limits assumed): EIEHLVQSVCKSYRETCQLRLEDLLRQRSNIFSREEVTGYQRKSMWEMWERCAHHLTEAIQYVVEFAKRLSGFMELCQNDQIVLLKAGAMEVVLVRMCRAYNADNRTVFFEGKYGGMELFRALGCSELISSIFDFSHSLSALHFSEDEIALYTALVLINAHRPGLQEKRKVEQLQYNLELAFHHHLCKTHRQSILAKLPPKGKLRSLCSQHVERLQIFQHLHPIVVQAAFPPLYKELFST
In short: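 […]engineered human reporter cell line expressing GAL4-DBD/RORγ-LBD hybrid with GAL4-UAS luciferase; constitutive activity measured as inverse agonism. Cells treated with compound (7.8-2000 nM) for 23 h at 37 °C; luminescence normalized to DMSO, IC50 by variable-slope fit, with parallel viability readout to flag non-specific inhibition.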

IL-17A = experiment: IL-17 release from differentiated primary human T-cells (IL-17A HTRF assay); conditions: primary human CD4+ T cells differentiated into Th17 cells, 45-hour incubation, IL-17A in supernatant; read-out: hIL17 IC50
In short: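 Primary human CD4+ T cells (~2×10^5/well) given compound (2–500 or 4–1000 nM, 0.1% DMSO), CD3/CD28-activated and Th17-differentiated (TGF-β, IL-6, IL-23, IL-1β) for 45 h at 37° C. Supernatant IL-17A by HTRF against standard curve, normalized to vehicle; IC50 by variable-slope regression, with parallel CyQuant viability.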

Row | IC50 [2] | IC50 (IL-17A) | Compound | EC (2-fold) [1]
1 | 124 nM | 240 nM | C[C@H]1C(=O)C(C#N)=C[C@@]2(C)c3nc(-c4ccc(Cl)c(Cl)c4)n(-c4cnn(C)c4)c3CC[C@H]12 [T158] | 1.09 µM
2 | 201 nM | 273 nM | C[C@H]1C(=O)C(C#N)=C[C@@]2(C)c3nc(-c4cccc(-c5ccncc5)c4)n(-c4cnn(C)c4)c3CC[C@H]12 [T159] | 1.08 µM
3 | 562 nM | 468 nM | C[C@H]1C(=O)C(C#N)=C[C@@]2(C)c3nc(-c4ccnc(N5CCOCC5)c4)n(-c4cnn(C)c4)c3CC[C@H]12 [T160] | > 2 µM
4 | 150 nM | 113 nM | CC(C)c1ccc(-c2nc3c(n2C2CC2)CC[C@@H]2[C@@H](C)C(=O)C(C#N)=C[C@@]32C)cc1 [T161] | 1.02 µM
5 | 141 nM | 137 nM | CC(C)c1ccc(-c2nc3c(n2C(C)C)CC[C@@H]2[C@@H](C)C(=O)C(C#N)=C[C@@]32C)cc1 [T162] | 1.12 µM
6 | 152 nM | 255 nM | CC(C)c1ccc(-c2nc3c(n2C)CC[C@@H]2[C@@H](C)C(=O)C(C#N)=C[C@@]32C)cc1 [T163] | 1.13 µM
7 | 237 nM | 158 nM | COCCn1c(-c2ccc(C(C)C)cc2)nc2c1CC[C@@H]1[C@@H](C)C(=O)C(C#N)=C[C@@]21C [T164] | > 2 µM
8 | 471 nM | 211 nM | CC(C)c1ccc(-c2nc3c(n2CCOCc2ccccc2)CC[C@@H]2[C@@H](C)C(=O)C(C#N)=C[C@@]32C)cc1 [T165] | > 2 µM
9 | 228 nM | 63 nM | CC(C)c1ccc(-c2nc3c(n2Cc2ccccc2)CC[C@@H]2[C@@H](C)C(=O)C(C#N)=C[C@@]32C)cc1 [T166] | 1.68 µM
10 | 245 nM | 53 nM | CC(C)c1ccc(-c2nc3c(n2Cc2ccc(F)cc2)CC[C@@H]2[C@@H](C)C(=O)C(C#N)=C[C@@]32C)cc1 [T167] | 1.11 µM
11 | 296 nM | 43 nM | CC(C)c1ccc(-c2nc3c(n2Cc2ccccc2F)CC[C@@H]2[C@@H](C)C(=O)C(C#N)=C[C@@]32C)cc1 [T168] | 1.29 µM
12 | 371 nM | 33 nM | CC(C)c1ccc(-c2nc3c(n2Cc2ccc(Cl)cc2)CC[C@@H]2[C@@H](C)C(=O)C(C#N)=C[C@@]32C)cc1 [T169] | 1.01 µM
13 | 103 nM | 72 nM | CC(C)c1ccc(-c2nc3c(n2Cc2ccccn2)CC[C@@H]2[C@@H](C)C(=O)C(C#N)=C[C@@]32C)cc1 [T170] | 0.602 µM
14 | 260 nM | 157 nM | CC(C)c1ccc(-c2nc3c(n2Cc2ccncc2)CC[C@@H]2[C@@H](C)C(=O)C(C#N)=C[C@@]32C)cc1 [T171] | 1.01 µM
15 | 178 nM | > 500 nM | CC(C)c1ccc(-c2nc3c(n2CCO)CC[C@@H]2[C@@H](C)C(=O)C(C#N)=C[C@@]32C)cc1 [T172] | > 2 µM
16 | 1970 nM | 119 nM | CC(C)c1ccc(-c2nc3c([nH]2)CC[C@@H]2[C@@H](C)C(=O)C(C#N)=C[C@@]32C)cc1 [T173] | 0.884 µM
17 | 1600 nM | 368 nM | CC(=O)n1c(-c2ccc(C(C)C)cc2)nc2c1CC[C@@H]1[C@@H](C)C(=O)C(C#N)=C[C@@]21C [T174] | 0.923 µM
18 | 120 nM | 129 nM | Cc1cc(-c2ccc(-n3nc(-c4ccncn4)c4c3[C@]3(C)C=C(C#N)C(=O)[C@H](C)[C@H]3CC4)cc2)cnn1 [T176] | 0.979 µM
19 | 52 nM | 9 nM | Cc1cc(-c2ccc(-n3nc(-c4ccc(F)cc4)c4c3[C@]3(C)C=C(C#N)C(=O)[C@H](C)[C@H]3CC4)cc2)cnn1 [T177] | 0.271 µM
20 | 64 nM | 31 nM | C[C@H]1C(=O)C(C#N)=C[C@@]2(C)c3c(c(-c4ccc(F)cc4)nn3-c3ccc(-c4cccnn4)cc3)CC[C@H]12 [T178] | 0.342 µM
